Structures are written as SMILES.

Results on one molecule are retold here after EP0691985B1, “[…]” (MERRELL PHARMACEUTICALS INC., priority 1993, dated 1994).

In assay [1] the test system is ET receptors. In words: Effect of ET-l on phosphatidyl inositol turnover (IPl formation) in rat brain slices, counter-test. The following applies: rat striatum slices, ETl 10^-6M. Format: cell-based. The protocol:
The buffer was changed every 15 minutes.

For assay [2], the system named is Endothelin Converting Enzyme (ECE). The conditions noted are these: read-out: IC50 (concentration inhibiting 50% of the effect of pro-ETl 10^-6M); rat striatum slices; pro-ET-l 10^-6M; [3H]-IPl accumulation; determined graphically.
From the text: In vitro Endothelin Converting Enzyme (ECE) assay via IPl formation in rat brain slices. This assay measures the enzymatic activity responsible for the generation of functional ET-l from pro-ET-l by measuring the stimulation of phosphatidyl inositol turnover as a marker of ET-l effects:
The precursor of ET-l, i.e., proendothelin-l (pro-ET-l), is unable to stimulate the phosphatidyl inositol turnover unless it is cleaved by a specific phosphoramidon sensitive protease, i.e., endothelin converting enzyme (ECE). […] For this assay, an adaptation of the procedure of Brown et al., J. Neurochem., 42:1379, 1984, was used.
The exact concentration of these solutions was checked by absorbance spectrophotometry at 280 nm, using the equation C = A / L ε280 [formula] (with C the concentration of the peptide in solution, A the absorbance measured, L the optical path length of the solution and ε280 the extinction coefficient of the peptide in solution (8370 and 7025 M^-1cm^-1 for pro-ET-l and ET-l, respectively)]. The stock solutions were then aliquoted, lyophilized and stored at -20°C. The peptides were redissolved and diluted in water on the day of the experiment (peptides for other tests also prepared by this method ). […]
In these conditions the stimulation of phosphatidyl inositol turnover by pro-ET-l can be assessed by measuring the amount of accumulated [^3H]-IPl.

Take `CC(C)C[C@H](NP(=O)(O)O[C@@H]1O[C@@H](C)[C@H](O)[C@@H](O)[C@H]1O)C(=O)N[C@@H](Cc1c[nH]c2ccccc12)C(=O)O` [phosphoramidon]: the IC50 in assay [1] ([3H]-IPl accumulation, determined graphically, read-out: RC50 (concentration reducing 50% of the effect of ETl 10^-6M)) is more than 30 µM; in assay [2] it was 6.4 ± 1.1 µM. Moreover, the “% of maximal reduction observed” value in assay [1] (recorded when RC50 >30 µM (up to 3 × 10^-5M)) was found to be 75 ± 9%.
